Key:
[1] = tested on: CRL1790 cells; assay: Resazurin cytotoxic assay, non-tumoral CRL1790; format: cell-based; conditions: Homo sapiens, Epithelial cell, CRL1790 non-tumoral colon epithelial cells, 48 h, mean ± SD
Method: (§1) CRL1790, SW480 and SW620 cell lines were purchased from American Type Culture Collection (ATCC). Cells were cultured at 37 °C with 5% CO2 atmosphere in medium supplemented with 10% fetal bovine serum (10270106, Gibco, Waltham, MA, USA), 10 mg/mL penicillin, 10 mg/mL streptomycin, […] amphotericin, and 0.03% L-Glutamine as recommended by the ATCC. MEM medium (M5650, Merck, Darmstadt, Germany) was used for non-tumoral CRL1790, and RPMI 1640 medium (L0501-500, Biowest, Nuaillé, France) was used for both tumoral SW480 and SW620 cell lines.
(§2) Cytotoxic activity was screened using Resazurin Fluorimetric Assay (R7017, Merck, Darmstadt, Germany), according to the manufacturer’s protocol. Cells seeded into 96-well plates (8 × 10^3 cells/well) were treated for 48 h with phenolic compounds at increasing concentrations from 2 × 10^−5 µM to 100 µM. Negative control with vehicle DMSO was included. Fluorescence was determined using Nanoquant Infinite M200 Pro multi-plate reader (Tecan). Half-maximal inhibitory concentration (IC50) values were determined in triplicate by non-linear regression with Graphpad (Prism).
(§3) Natural products such as phenolic compounds have recently attracted significant attention for their anticancer properties. […] We used three different cell lines to mimic CRC progression. In particular, CRL1790 are colon epithelial cells simulating the non-tumoral stage. In addition, SW480 is Dukes’ type B colorectal adenocarcinoma cells representing the primary tumor. Finally, SW620 constitutes Dukes’ type C colorectal adenocarcinoma derived from metastasic site cells to mimic the most aggressive metastasic stage. […] Cytotoxic potency upon 48 h treatment with phenolic compounds was examined by determination of half-maximal inhibitory concentration (IC50) values using the Resazurin method (Table 1). Only GA inhibited cell growth in SW480 and SW620 at clinically-relevant concentrations (IC50 values lower than 30 µM).

[2] = tested on: SW480 cells; assay: Resazurin cytotoxic assay, tumoral SW480; format: cell-based, human; conditions: Homo sapiens, SW480, 48 h, SW480 primary tumor cells, mean ± SD
Method: as §1, §2, §3

[3] = tested on: SW620 cells; assay: Resazurin cytotoxic assay, metastatic SW620; format: cell-based, human; conditions: Homo sapiens, SW-620, 48 h, mean ± SD
Method: as §1, §2, §3

[4] = tested on: G4-enriched genes (5′ETS, BCL2, CMYB, CMYC, KRAS, VEGFA) in SW480 cells; assay: qRT-PCR of G4-enriched genes; format: cell-based, human; conditions: SW480, CX5461 10 µM for 6 h
Method: Total cellular RNA was isolated from different experimental group cells using Trizol Reagent (15596, Invitrogen, Waltham, MA, USA). Reverse transcription was conducted using RevertAid First Strand cDNA Synthesis Kit (K1622, Thermo Scientific, MA, USA) according to manufacturer’s protocol with random primers. Quantitative PCR was performed with SYBR Green (4309155, Thermo Scientific, MA, USA) on 7900HT Fast Real-time PCR System (Applied Biosystems). Target mRNA levels were normalized to actin (ΔCt), and fold change was determined using the 2^−ΔΔCt method. Experiments were conducted in triplicate.
In this context, we aimed to analyze whether GA affects the transcription of G4-enriched genes by qRT-PCR. In the case of ribosomal DNA, we measured the short-lived 5′ external transcribed spacer (5′ETS) of the pre-RNA, whichreflects the ribosomal RNA synthesis rate [19].

[5] = tested on: G4 structures in SW480 cells; assay: BG4 immunofluorescence (G4 stabilization in cells); format: cell-based, human; conditions: SW480, CX5461 10 µM for 6 h, positive control
Method: Cells were seeded on 13 mm circular coverslips and placed in 24-well plates. After exposure to different experimental conditions, fixation was performed with 4% (v/v) paraformaldehyde (P6148, Merck, Darmstadt, Germany) for 10 min at room temperature (RT), permeabilization with 0.1% (v/v) Triton-X100 (T8787, Merck, Darmstadt, Germany) for 10 min and blocking with 10% bovine serum albumin (A7906, Merck, Darmstadt, Germany) containing 0.5% (v/v) Triton-X100 for 30 min at RT. Primary antibodies were incubated for 1 h at RT and secondary antibodies for 30 min at 4 °C in darkness. Finally, all coverslips were mounted onto slides (J2800AMNZ, Thermo scientific, Waltham, MA, USA), including DAPI (4′,6-diamidino-2-phenylindole) for nuclear counterstain. Images were acquired on a Confocal Zeiss LSM 710 inverted microscope with a 63× immersion objective. In a different manner, BG4 immunofluorescence was conducted as previously described [11]. BG4 mean nuclear fluorescence intensity was quantified using Fiji software (N > 250).

[6] = tested on: γH2AX in SW480 cells; assay: Western blot of γH2AX (DNA damage); format: cell-based, human; conditions: SW480, CX5461 10 µM for 6 h
Source text: Protein extract from different experimental conditions was extracted using RIPA lysis buffer containing 1% PMSF (P7626, Merck, Darmstadt, Germany), 1% protease inhibitor cocktail (PIC) (P8340, Merck, Darmstadt, Germany), and 1% sodium orthovanadate (S6508, Merck, Darmstadt, Germany). Quantification of protein levels was achieved by Bradford method following manufacturer’s protocol (500-0006, BioRad, Hercules, CA, USA). Protein content was loaded on 12% SDS-polyacrylamide gel (1610148, BioRad, Hercules, CA, USA) for electrophoresis and wet transferred to nitrocellulose membranes (66485, Pall corporation, New York, NY, USA). Membranes were blocked with 5% semi-skimmed milk and incubated overnight at 4 °C with antibodies for γH2AX and actin as housekeeping. Then, membranes were incubated with horseradish peroxidase-labeled antibodies for 1 h at RT. After luminal solution (1705060, BioRad, Hercules, CA, USA) incubation, chemiluminiscence signals were measured using Image Quant LAS 4000 (GE Healthcare Life Sciences). […] Protein levels were quantified by ImageJ.
Then, we investigated DNA damage response because the induction of double-strand breaks is a well-known G4s stabilization associated effect [20]. To this end, we measured the phosphorylation of histone H2AX on Ser-139 (γH2AX), a DNA damage marker, by Western Blot.

Compound | IC50 [1] | IC50 [2] | IC50 [3] | transcription of G4-enriched genes [4] | nuclear BG4 signal [5] | DNA damage (γH2AX protein levels) [6]
OC[C@H]1O[C@@H](Oc2cc(O)cc(/C=C/c3ccc(O)cc3)c2)[C@H](O)[C@@H](O)[C@@H]1O [Piceid, piceid] | > 100 µM | > 100 µM | > 100 µM | – | – | –
Cc1cnc(CNC(=O)c2c(=O)c3ccc(N4CCCN(C)CC4)nc3n3c2sc2ccccc23)cn1 [CX5461] | – | – | – | influenced the expression levels of some of these genes | A similar effect was observed | significantly induced DNA damage
Oc1ccc(/C=C/c2cc(O)cc(O)c2)cc1 [Resveratrol, resveratrol] | > 100 µM | > 100 µM | > 100 µM | – | – | –
OCCc1ccc(O)c(O)c1 [Hydroxytyrosol, hydroxytyrosol] | > 100 µM | > 100 µM | 71.9 ± 3.52 µM | – | – | –
OCCc1ccc(O)cc1 [Tyrosol, tyrosol] | > 100 µM | > 100 µM | > 100 µM | – | – | –
